The values below come from patent publication US9624170B2, “4-(piperrazin-1-yl)-pyrrolidin-2-one compounds as monoacylglycerol lipase (MAGL) inhibitors” (TAKEDA PHARMACEUTICAL COMPANY LIMITED, priority 2013, dated 2017).

The term inhibition denotes the drop in the measured response relative to a control, in per cent.

The assay addresses T1, human MAGL (His-hMAGL) (Homo sapiens, UniProt Q99685).
T1 construct: made in house; host or cells: Escherichia coli BL21(DE3)
T1 sequence (Q99685 1-303): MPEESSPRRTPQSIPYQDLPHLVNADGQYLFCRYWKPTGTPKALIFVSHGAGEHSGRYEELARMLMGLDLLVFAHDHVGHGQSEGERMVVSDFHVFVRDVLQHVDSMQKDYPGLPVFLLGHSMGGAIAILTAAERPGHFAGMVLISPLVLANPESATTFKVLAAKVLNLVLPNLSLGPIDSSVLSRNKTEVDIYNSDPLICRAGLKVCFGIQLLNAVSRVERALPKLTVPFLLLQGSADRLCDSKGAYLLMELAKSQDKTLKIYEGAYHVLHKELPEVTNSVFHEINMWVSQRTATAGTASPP
Nature of the assay: Measurement of MAGL inhibitory activity by mass spectrometry. In kind it is biochemical. As to conditions: 10 μM test compound; substrate 2-arachidonylglycerol, arachidonic acid by RapidFire-mass spectrometry. Here is the method: Thereafter, to each well was added 150 μM 2-arachidonylglycerol (Tocris Bioscience) by 5 μL, and the mixture was incubated at room temperature for 10 min. Then, 2% formic acid (Wako Pure Chemical Industries, Ltd.) was added by 10 μL to discontinue the reaction. Furthermore, acetonitrile (50 μL) containing 3 μM arachidonic acid-d8 (Cayman Chemical Company) was added and the mixture was stirred. The amount of arachidonic acid in the obtained enzyme reaction mixture was calculated by measuring by RapidFire-mass spectrometry and correcting by the amount of arachidonic acid-d8. High Throughput online solid phase extraction was performed using RapidFire 300TM system (Agilent Technologies, Inc.). […] The injection needle was washed with ultrapure water (500 millisecond) and acetonitrile (500 millisecond) to minimize carry-over. […] The RapidFire300 system was controlled by RapidFire UI software version 3.6 (Agilent Technologies, Inc.). The mass spectrometry of the resultant product was performed using […] triple quadrupole mass spectrometer (AB SCIEX) equipped with an electrospray ion sauce (Turbolon SprayTM) in a negative selected reaction monitoring (SRM) mode. The conditions of SRM are shown below. The parameters of the instrument were optimized as follows: capillary temperature 600° C., ion spray voltage -4.5 kV, collision gas 8, curtain gas 15 psi, ion source gas 1 60 psi, ion source gas 2 60 psi. The mass spectrometer was controlled by AnalystTM software version 1.5.1 (AB SCIEX). The peak area integration was analyzed using RapidFire integrator software version 3.6 (Agilent Technologies, Inc.). MAGL inhibitory rate (%) was calculated according to the following calculation formula.
As to `Cc1cc(-c2cccc(N3CC(N4CCN(C(=O)c5nccs5)CC4)CC3=O)c2)n(C)n1` (stereo not shown) [Example 157, 1-(3-(1,3-dimethyl-1H-pyrazol-5-yl)phenyl)-4-(4-(1,3-thiazol-2-ylcarbonyl)piperazin-1-yl)pyrrolidin-2-one], the inhibition at 10 µM was found to be 99%.

As to `Cn1nc(C(F)(F)F)cc1-c1cccc(N2CC(N3CCN(C(=O)c4nccs4)CC3)CC2=O)c1` (stereo not shown) [Example 158, 1-(3-(1-methyl-3-(trifluoromethyl)-1H-pyrazol-5-yl)phenyl)-4-(4-(1,3-thiazol-2-ylcarbonyl)piperazin-1-yl)pyrrolidin-2-one], the inhibition at 10 µM was 99%.

As to `O=C(c1nccs1)N1CCN(C2CC(=O)N(c3ccccc3)C2)CC1` (stereo not shown) [Example 160, 1-phenyl-4-(4-(1,3-thiazol-2-ylcarbonyl)piperazin-1-yl)pyrrolidin-2-one], the inhibition at 10 µM came to 91%.

Take `Cc1nc(C)c(-c2cccc(N3CC(N4CCN(C(=O)c5nccs5)CC4)CC3=O)c2)s1` (stereo not shown) [Example 161, 1-(3-(2,4-dimethyl-1,3-thiazol-5-yl)phenyl)-4-(4-(1,3-thiazol-2-ylcarbonyl)piperazin-1-yl)pyrrolidin-2-one]: the inhibition at 10 µM is 100%.

Turning to `Cc1ccsc1-c1cccc(N2CC(N3CCN(C(=O)c4nccs4)CC3)CC2=O)c1` (stereo not shown) [Example 162, 1-(3-(3-methyl-2-thienyl)phenyl)-4-(4-(1,3-thiazol-2-ylcarbonyl)piperazin-1-yl)pyrrolidin-2-one], the inhibition at 10 µM is 99%.

For `O=C(c1nccs1)N1CCN(C2CC(=O)N(c3cccc(-c4ncccc4C(F)(F)F)c3)C2)CC1` (stereo not shown) [Example 165, 4-(4-(1,3-thiazol-2-ylcarbonyl)piperazin-1-yl)-1-(3-(3-(trifluoromethyl)pyridin-2-yl)phenyl)pyrrolidin-2-one], the inhibition at 10 µM amounted to 100%.

For `O=C(c1ncco1)N1CCN(C2CC(=O)N(c3cccc(-c4ccccc4Cl)c3)C2)CC1` (stereo not shown) [Example 166, 1-(2′-chlorobiphenyl-3-yl)-4-(4-(1,3-oxazol-2-ylcarbonyl)piperazin-1-yl)pyrrolidin-2-one], the inhibition at 10 µM came out at 99%.

In the case of `Cc1ncccc1-c1cccc(N2CC(N3CCN(C(=O)c4ncco4)CC3)CC2=O)c1` (stereo not shown) [Example 167, 1-(3-(2-methylpyridin-3-yl)phenyl)-4-(4-(1,3-oxazol-2-ylcarbonyl)piperazin-1-yl)pyrrolidin-2-one], the inhibition at 10 µM was found to be 94%.

Regarding `O=C(c1cscn1)N1CCN(C2CC(=O)N(c3cccc(-c4ccccc4Cl)c3)C2)CC1` (stereo not shown) [Example 168, 1-(2′-chlorobiphenyl-3-yl)-4-(4-(1,3-thiazol-4-ylcarbonyl)piperazin-1-yl)pyrrolidin-2-one], the inhibition at 10 µM is 101%.

`Cc1ncccc1-c1cccc(N2CC(N3CCN(C(=O)c4cscn4)CC3)CC2=O)c1` (stereo not shown) [Example 169, 1-(3-(2-methylpyridin-3-yl)phenyl)-4-(4-(1,3-thiazol-4-ylcarbonyl)piperazin-1-yl)pyrrolidin-2-one]: the inhibition at 10 µM came to 97%.

Consider `O=C(c1nccs1)N1CCN(C2CC(=O)N(c3ccc(F)c(Br)c3)C2)CC1` (stereo not shown) [Example 170, 1-(3-bromo-4-fluorophenyl)-4-(4-(1,3-thiazol-2-ylcarbonyl)piperazin-1-yl)pyrrolidin-2-one], for which the inhibition at 10 µM was 98%.

On to `CC(C)n1nccc1-c1cccc(N2CC(N3CCN(C(=O)c4nccs4)CC3)CC2=O)c1` (stereo not shown) [Example 171, 1-(3-(1-isopropyl-1H-pyrazol-5-yl)phenyl)-4-(4-(1,3-thiazol-2-ylcarbonyl)piperazin-1-yl)pyrrolidin-2-one], for which the inhibition at 10 µM was 99%.

As to `Cc1ncccc1-c1cccc(N2CC(N3CCN(C(=O)c4nccs4)CC3)CC2=O)n1` (stereo not shown) [Example 174, 1-(2′-methyl-2,3′-bipyridin-6-yl)-4-(4-(1,3-thiazol-2-ylcarbonyl)piperazin-1-yl)pyrrolidin-2-one], the inhibition at 10 µM was 100%.
